Experimental data: patent US4902622A, “Novel α-1,6-glucosidase and process for producing the same” (Amano Pharmaceutical Co., Ltd., priority 1986, dated 1990)
“Also recorded” adds a separate entry of the source.

Assays:
Format in all cases: biochemical, Bacillus sectorramus
α-1,6-glucosidase [1] = test: Influence of metal salt on enzyme activity; conditions: for Remaining activity (%): 50 mM acetic acid buffer (pH 4.5), 30 minutes at 40° C., final concentration of metal salt 5 mM; for Influence of metal salts: metal salt 5 mM
Experimental: (§1) 8. Assay of activity: 4 ml of 0.5% pullulan solution (pH 4.5) was added to 1 ml of an enzyme solution, and the reaction was carried out for 30 minutes at 40° C. Then, 2 ml of Somogyi solution was added, the mixture was heated for 20 minutes and then cooled. After cooling, 1 ml of ammonium arsenomolybdenate was added, and water was added to a total volume of 25 ml. Absorbance of this solution was measured at 500 nm, with a layer thickness of 1 cm. Under these conditions, the activity was defined as one unit when reducing sugar corresponding to 1 μmol of glucose was produced per minute.
10. […] Influences of various metal salts are shown in Table 5, indicating the remaining activity after treatment in a 50 mM acetic acid buffer (pH 4.5) for 30 minutes at 40° C., with a final concentration of metal salt of 5 mM.

α-1,6-glucosidase [2] = test: Relative activity to polysaccharides (substrate specificity); conditions: activity of the enzyme on the polysaccharide, pullulan = 100
Experimental: 3. Relative activity to polysaccharides: Table 3 compares the relative activity of the enzyme on pullulan to relative activity on soluble maize amylopectin, soluble starch, oyster glycogen, hare glycogen, maize amylopectin, and potato amylopectin.
as §1

α-1,6-glucosidase [3] = test: Influence of inhibitor on enzyme activity
Experimental: as §1

α-1,6-glucosidase [4] = test: Km value and Vmax to substrates; conditions: substrate of the purified enzyme
Description: After the cultivation period, the cells were removed from the culture broth, and the supernatant fraction thus obtained was concentrated to obtain a preparation of crude pullulanase. This preparation was fractionated with ammonium sulfate, then subjected to affinity chromatography with γ-cyclodextrin-cephalose 6B (produced by coupling γ-cyclodextrin to activated Sepharose 6B (trade mark, Pharmacia Fine Chemical Co.)) and purified to a single band by electrophoresis utilizing SDS-polyacrylamide gel. The following explains the enzymochemical properties of the α-1,6-glucosidase thus purified.
2. Km value and Vmax to substrates: The Km value (mg/ml) and Vmax value (μmol/min/mg protein) of the enzyme to pullulan, potato amylopectin, and corn amylopectin are as shown in Table 2:
as §1

[5] = 50 mM acetic acid buffer (pH 4.5), 30 minutes at 40° C., final concentration of inhibitor 1 mM

Compound: [Cl-].[Cl-].[Sr+2] [SrCl2]
- Remaining activity (%) (α-1,6-glucosidase [1]): 74.5%

Compound: O.O.[Cl][Cu][Cl] [CuCl2.2H2 O]
- Remaining activity (%) (α-1,6-glucosidase [1]): 73.4%

Compound: [Cl][Hg][Cl] [HgCl2]
- Remaining activity (%) (α-1,6-glucosidase [1]): 0%
- Influence of metal salts (α-1,6-glucosidase [1]; listed as Hg^2+): deactivated; also recorded: losses activity

Compound: [Cl-].[Cl-].[Co+2] [CoCl2]
- Remaining activity (%) (α-1,6-glucosidase [1]): 87.7%

Compound: [Ba+2].[Cl-].[Cl-] [BaCl2]
- Remaining activity (%) (α-1,6-glucosidase [1]): 98.9%
- Influence of metal salts (α-1,6-glucosidase [1]): negligibly affected

Compound: Soluble starch
- Relative activity (%) (α-1,6-glucosidase [2]): 6.7%

Compound: [Cl][Fe][Cl] [FeCl2.nH2 O]
- Remaining activity (%) (α-1,6-glucosidase [1]): 82.1%

Compound: O=C(O)CI [Monoiodo-acetic acid]
- Remaining activity (%) (α-1,6-glucosidase [3]; pH 4.5): 66.5%

Compound: [Ca+2].[Cl-].[Cl-] [CaCl2]
- Remaining activity (%) (α-1,6-glucosidase [1]): 79.1%

Compound: [Cl][Fe]([Cl])[Cl] [FeCl3]
- Remaining activity (%) (α-1,6-glucosidase [1]): 57.8%
- Influence of metal salts (α-1,6-glucosidase [1]): inhibited

Compound: Cl.Cl.[Ag] [AgCl2]
- Remaining activity (%) (α-1,6-glucosidase [1]): 2.7%
- Influence of metal salts (α-1,6-glucosidase [1]; listed as Ag^2+): deactivated; also recorded: losses activity

Compound: O.O.O.O.O.O.[Cl][Ni][Cl] [NiCl2.6H2 O]
- Remaining activity (%) (α-1,6-glucosidase [1]): 102.7%
- Influence of metal salts (α-1,6-glucosidase [1]): negligibly affected

Compound: O.O.O.O.O.[Cd+2].[Cd+2].[Cl-].[Cl-].[Cl-].[Cl-] [CdCl2.21/2H2 O]
- Remaining activity (%) (α-1,6-glucosidase [1]): 92.4%
- Influence of metal salts (α-1,6-glucosidase [1]): negligibly affected

Compound: CCCCCCCCCCCCOS(=O)(=O)[O-].[Na+] [SDS, sodium dodecylsulfate]
- Remaining activity (%) (α-1,6-glucosidase [3]; [5]): 1.5%

Compound: O.O.O.O.O.O.[Cl-].[Cl-].[Mg+2] [MgCl2.6H2 O]
- Remaining activity (%) (α-1,6-glucosidase [1]): 91.3%

Compound: c1cnc2c(c1)ccc1cccnc12 [o-phenanthroline]
- Remaining activity (%) (α-1,6-glucosidase [3]; [5]): 109.0%
- Influence of inhibitor (α-1,6-glucosidase [3]; inhibitor 1 mM): not and not inhibited

Compound: O.O.[Cl][Sn][Cl] [SnCl2.2H2 O]
- Remaining activity (%) (α-1,6-glucosidase [1]): 82.1%

Compound: O=C(O)CN(CCN(CC(=O)O)CC(=O)O)CC(=O)O [EDTA]
- Remaining activity (%) (α-1,6-glucosidase [3]; pH 4.5): 93.1%

Compound: Pullulan
- Km (α-1,6-glucosidase [4]): 0.14 mg/mL
- Vmax (α-1,6-glucosidase [4]): 70.0 μmol/min/mg protein
- Relative activity (%) (α-1,6-glucosidase [2]): 100%

Compound: O=C(O)c1cc[c]([Hg][Cl])cc1 [PCMB, p-chloromercuribenzoic acid]
- Remaining activity (%) (α-1,6-glucosidase [3]; [5]): 27.1%

Compound: O.O.O.O.[Cl][Mn][Cl] [MnCl2.4H2 O]
- Remaining activity (%) (α-1,6-glucosidase [1]): 85.9%
- Influence of metal salts (α-1,6-glucosidase [1]): negligibly affected

Compound: [Cl-].[Cl-].[Zn+2] [ZnCl2]
- Remaining activity (%) (α-1,6-glucosidase [1]): 97.3%
- Influence of metal salts (α-1,6-glucosidase [1]): negligibly affected

Compound: CCN1C(=O)C=CC1=O [N--ethylmaleimide]
- Remaining activity (%) (α-1,6-glucosidase [3]; [5]): 65.5%
